According to publication PMC9813109, “Phase I dose-escalation study of milademetan in patients with relapsed or refractory acute myeloid leukemia” (International Journal of Hematology, 2022):
Entries after “also recorded” stand apart in the source; their conditions may differ. Like-named read-outs stand apart in the source and are kept apart here.

Tests used:
MDM2–p53 interaction = test system: MDM2–p53 interaction; design: method as in PMID 31310659, PMID 30724592; conditions: in vitro studies; cited from earlier work
Platelet = test system: Platelet; design: species or system human; conditions: in vivo
Excerpt: Patients were followed up until the AEs resolved.

[1] = Plasma pharmacokinetics (validated HPLC/MS, noncompartmental analysis); assay type: in vivo, human; conditions: for Cmax / AUC(0-t) / Tmax / half-life / AUC(0-inf): human, plasma, oral
Description: Milademetan concentrations were determined using a validated HPLC/MS method. The lower limit of quantification was 0.500 ng/mL. Noncompartmental analysis was used to calculate the PK parameters from milademetan plasma concentrations. In addition, the Phoenix WinNonlin 8.1 software (Certara, Princeton, NJ, USA) was used for PK analysis. In addition to descriptive statistics, the geometric mean and geometric coefficient of variation were used to describe the PK parameters. All analyses were conducted using SAS® software (version 9.4; SAS Institute Inc., Cary, NC, USA). The time courses of mean plasma milademetan concentrations on days 1 and 14 of cycle 1 (linear scale) in the QD 14/28-day schedule were used for pharmacokinetic analysis. The best response was measured as CR, CRh, CRi, or PR. For efficacy analysis, a waterfall plot of the best percent change from baseline blast count in bone marrow aspirate on the QD 14/28-day schedule was drawn to assess the blast count reduction. In addition, line plots of individual serum MIC-1 levels were drawn in the QD 14/28-day schedule for the pharmacodynamics analysis set.

tumor cells = test system: tumor cells; design: method as in PMID 31310659, PMID 30724592; conditions: in vitro studies; cited from earlier work
[2] = test system: R/R AML (blast count in bone marrow aspirate); experiment: Efficacy assessment: best response and bone marrow blast count; assay type: in vivo, human; conditions: for Best response: Not applicable: SD < 3 months was deemed not applicable
Excerpt: Bone marrow and peripheral blood results were used to assess the antitumor effect of milademetan. AML response criteria were defined as shown in Supplementary Table 1. A morphologic leukemia-free state (MLFS) was defined as bone marrow blasts < 5% in the absence of blasts with Auer rods and the absence of extramedullary leukemia. The presence/absence of hematological recovery or blood transfusion was not considered. Stable disease (SD) was defined as an absence of CR, CR with incomplete hematologic recovery (CRi) or partial hematologic recovery (CRh), partial remission (PR), or MLFS, provided that the criteria for the progressive disease were not met. SD had to last at least 3 months (assessed as SD more than thrice in a row) after initiating milademetan treatment. SD < 3 months was deemed not applicable. The best-measured response was defined as the best overall response (all time points after the start of study treatment until the end of treatment). The composite CR (CRc) duration was defined as the time between when the criteria for […] first met and when a relapse was first confirmed. In addition to descriptive statistics, the geometric mean and geometric coefficient of variation were used to describe the PK parameters. All analyses were conducted using SAS® software (version 9.4; SAS Institute Inc., Cary, NC, USA). The time courses of mean plasma milademetan concentrations on days 1 and 14 of cycle 1 (linear scale) in the QD 14/28-day schedule were used for pharmacokinetic analysis. The best response was measured as CR, CRh, CRi, or PR. For efficacy analysis, a waterfall plot of the best percent change from baseline blast count in bone marrow aspirate on the QD 14/28-day schedule was drawn to assess the blast count reduction. In addition, line plots of individual serum MIC-1 levels were drawn in the QD 14/28-day schedule for the pharmacodynamics analysis set.

Q: Which “Effect on MDM2–p53 interaction” value (MDM2–p53 interaction) does the source give for `CC1(C)CCC2(CC1)N[C@@H](C(=O)N[C@@H]1CC[C@@H](C(N)=O)OC1)[C@H](c1ccnc(Cl)c1F)[C@]21C(=O)Nc2cc(Cl)ccc21` [milademetan] here?
A: inhibits the MDM2–p53 interaction

Q: What about the “Mean platelet count vs baseline” value (Platelet) of the same compound?
A: decreased from the baseline in all cohorts

Q: What about the AUCinf ([1]; Day 1 of cycle 1, 90 mg/day, mean (SD), two patients excluded) of the same compound?
A: 13,700 (4,100) ng h/mL

Q: And the “Mean accumulation ratios based on AUC24h” value ([1]; Day 14, dose range tested (90-160 mg))?
A: 1.40–1.90

Q: And the Ctrough ([1]; Day 14 of cycle 1, 90 mg/day, mean (SD))?
A: 422 (147) ng/mL

Q: And the Ctrough ([1]; Day 14 of cycle 1, 120 mg/day, mean (SD))?
A: 635 (533) ng/mL

Q: What about the Ctrough ([1]; Day 14 of cycle 1, 160 mg/day, mean (SD)) of the same compound?
A: 769 (221) ng/mL

Q: And the “Increase in Cmax and AUC with dose” value ([1]; dose range tested, single and multiple dosing)?
A: increased linearly with milademetan dose; also recorded: linear and dose-proportional

Q: And the Cmax ([1]; 90 mg/day, Day 1 of cycle 1, 90 mg/day, mean (SD))?
A: 653 ng/mL

Q: What about the AUC(0-t) ([1]; 90 mg/day, Day 1 of cycle 1, 90 mg/day, mean (SD), two patients excluded, read-out: AUC24h) of the same compound?
A: 8640 ng·h/mL

Q: And the AUC(0-t) ([1]; 90 mg/day, Day 1 of cycle 1, 90 mg/day, mean (SD), read-out: AUC8h)?
A: 3170 ng·h/mL

Q: What about the AUC(0-t) ([1]; 90 mg/day, Day 1 of cycle 1, 90 mg/day, mean (SD), read-out: AUClast) of the same compound?
A: 8060 ng·h/mL

Q: What about the Tmax ([1]; 90 mg/day, Day 1 of cycle 1, 90 mg/day, median (minimum, maximum), read-out: Tmax) of the same compound?
A: 4.45 h

Q: And the Cmax ([1]; 90 mg/day, Day 14 of cycle 1, 90 mg/day, mean (SD))?
A: 1090 ng/mL

Q: And the AUC(0-t) ([1]; 90 mg/day, Day 14 of cycle 1, 90 mg/day, mean (SD), read-out: AUC8h)?
A: 6220 ng·h/mL

Q: And the Tmax ([1]; 90 mg/day, Day 14 of cycle 1, 90 mg/day, median (minimum, maximum), read-out: Tmax)?
A: 3.02 h

Q: And the Cmax ([1]; 120 mg/day, Day 1 of cycle 1, 120 mg/day, mean (SD))?
A: 1010 ng/mL

Q: And the AUC(0-t) ([1]; 120 mg/day, Day 1 of cycle 1, 120 mg/day, mean (SD), one patient excluded, read-out: AUC24h)?
A: 12100 ng·h/mL

Q: What about the AUC(0-t) ([1]; 120 mg/day, Day 1 of cycle 1, 120 mg/day, mean (SD), read-out: AUC8h) of the same compound?
A: 4940 ng·h/mL

Q: What about the AUC(0-t) ([1]; 120 mg/day, Day 1 of cycle 1, 120 mg/day, mean (SD), read-out: AUClast) of the same compound?
A: 11300 ng·h/mL

Q: What about the Tmax ([1]; 120 mg/day, Day 1 of cycle 1, 120 mg/day, median (minimum, maximum), read-out: Tmax) of the same compound?
A: 3.13 h

Q: What about the Cmax ([1]; 120 mg/day, Day 14 of cycle 1, 120 mg/day, mean (SD)) of the same compound?
A: 1680 ng/mL

Q: And the AUC(0-t) ([1]; 120 mg/day, Day 14 of cycle 1, 120 mg/day, mean (SD), read-out: AUC8h)?
A: 10000 ng·h/mL

Q: And the Tmax ([1]; 120 mg/day, Day 14 of cycle 1, 120 mg/day, median (minimum, maximum), read-out: Tmax)?
A: 2.98 h

Q: And the Cmax ([1]; 160 mg/day, Day 1 of cycle 1, 160 mg/day, mean (SD))?
A: 1380 ng/mL

Q: What about the AUC(0-t) ([1]; 160 mg/day, Day 1 of cycle 1, 160 mg/day, mean (SD), two patients excluded, read-out: AUC24h) of the same compound?
A: 15000 ng·h/mL

Q: And the AUC(0-t) ([1]; 160 mg/day, Day 1 of cycle 1, 160 mg/day, mean (SD), read-out: AUC8h)?
A: 6560 ng·h/mL

Q: What about the AUC(0-t) ([1]; 160 mg/day, Day 1 of cycle 1, 160 mg/day, mean (SD), read-out: AUClast) of the same compound?
A: 14900 ng·h/mL

Q: And the Tmax ([1]; 160 mg/day, Day 1 of cycle 1, 160 mg/day, median (minimum, maximum), read-out: Tmax)?
A: 2.54 h

Q: What about the Cmax ([1]; 160 mg/day, Day 14 of cycle 1, 160 mg/day, mean (SD)) of the same compound?
A: 2710 ng/mL

Q: And the AUC(0-t) ([1]; 160 mg/day, Day 14 of cycle 1, 160 mg/day, mean (SD), read-out: AUC8h)?
A: 15300 ng·h/mL

Q: What about the Tmax ([1]; 160 mg/day, Day 14 of cycle 1, 160 mg/day, median (minimum, maximum), read-out: Tmax) of the same compound?
A: 3.03 h

Q: And the half-life ([1]; Day 1 of cycle 1, 90 mg/day, mean (SD), two patients excluded, read-out: t1/2 (converted))?
A: 15.9 h

Q: And the AUC(0-inf) ([1]; Day 1 of cycle 1, 120 mg/day, mean (SD), one patient excluded)?
A: 18600 ng·h/mL

Q: And the half-life ([1]; Day 1 of cycle 1, 120 mg/day, mean (SD), one patient excluded, read-out: t1/2 (converted))?
A: 14.1 h

Q: What about the AUC(0-inf) ([1]; Day 1 of cycle 1, 160 mg/day, mean (SD), two patients excluded) of the same compound?
A: 22700 ng·h/mL

Q: And the half-life ([1]; Day 1 of cycle 1, 160 mg/day, mean (SD), two patients excluded, read-out: t1/2 (converted))?
A: 14.6 h

Q: What about the half-life ([1]; across doses, read-out: Mean half-life (converted)) of the same compound?
A: ~15 h

Q: What about the Tmax ([1]; across doses, read-out: Median Tmax) of the same compound?
A: 3 to 4 h

Q: And the “Antitumor effect in vitro” value (tumor cells)?
A: p53 status-dependent antitumor effect

Q: What about the “Best response: Morphologic leukemia-free state” value ([2]; 90 mg/day (n = 4)) of the same compound?
A: 0 (0.0) n, %

Q: And the “Best response: Progressive disease” value ([2]; 90 mg/day (n = 4))?
A: 1 (25.0) n, %

Q: What about the “Best response: Stable disease” value ([2]; 90 mg/day (n = 4)) of the same compound?
A: 1 (25.0) n, %

Q: And the “Best response: Not applicable” value ([2]; 90 mg/day (n = 4))?
A: 2 (50.0) n, %

Q: What about the “Best response: Morphologic leukemia-free state” value ([2]; 120 mg/day (n = 5)) of the same compound?
A: 1 (20.0) n, %

Q: What about the “Best response: Progressive disease” value ([2]; 120 mg/day (n = 5)) of the same compound?
A: 1 (20.0) n, %

Q: And the “Best response: Stable disease” value ([2]; 120 mg/day (n = 5))?
A: 0 (0.0) n, %

Q: What about the “Best response: Not applicable” value ([2]; 120 mg/day (n = 5)) of the same compound?
A: 3 (60.0) n, %

Q: And the “Best response: Morphologic leukemia-free state” value ([2]; 160 mg/day (n = 3))?
A: 1 (33.3) n, %

Q: What about the “Best response: Progressive disease” value ([2]; 160 mg/day (n = 3)) of the same compound?
A: 0 (0.0) n, %

Q: What about the “Best response: Stable disease” value ([2]; 160 mg/day (n = 3)) of the same compound?
A: 0 (0.0) n, %

Q: And the “Best response: Not applicable” value ([2]; 160 mg/day (n = 3))?
A: 2 (66.7) n, %

Q: What about the “Patients with a ≥ 50% reduction in baseline blast count in the bone marrow aspirate” value ([2]; 12 patients) of the same compound?
A: 33.3%

Q: What about the “CR, CRh, CRi, or PR” value ([2]; 12 patients, 90, 120 or 160 mg) of the same compound?
A: None of the patients

Q: What about the “MLFS, patients” value ([2]; 12 patients, TP53 wild at baseline) of the same compound?
A: 16.7%

Q: What about the “Best response: Morphologic leukemia-free state” value ([2]; Total (n = 12)) of the same compound?
A: 2 (16.7) n, %

Q: What about the “Best response: Progressive disease” value ([2]; Total (n = 12)) of the same compound?
A: 2 (16.7) n, %

Q: What about the “Best response: Stable disease” value ([2]; Total (n = 12)) of the same compound?
A: 1 (8.3) n, %

Q: And the “Best response: Not applicable” value ([2]; Total (n = 12))?
A: 7 (58.3) n, %
